Literature values in patent US9445901B2, “Prosthesis with sustained release analgesic” (priority 2003, dated 2016).
Counter-ions that a name gives are not always drawn.

Conditions: man, after injection for caudal, epidural or peripheral nerve block

time to peak levels of bupivacaine in the blood: 30 to 45 min
Compound: CCCCN1CCCCC1C(=O)Nc1c(C)cccc1C (centres unmarked) [Marcaine, bupivacaine hydrochloride]
decline of blood levels after the peak: decline to insignificant levels during the next three to six hours
